Measured values: patent US8916681B2, “Compound, use and method” (Medical Research Council, priority 2007, dated 2014)
Non-standard residues stand in square brackets, D forms with d. Residues, ends and D or L forms follow the SMILES beside them.

Target: GPR54 (Homo sapiens, UniProt Q969F8)
Assay: Inositol phosphate (IP) antagonism assay: inhibition of 10 nM kisspeptin-10 stimulation of IP in CHO/gpr-54 cells
Assay type: cell-based
Parameters: G. Vassart, Univ; Brussels
Conditions: for Inhibition of IP stimulation by 10 nM Agonist: % Inhibition of Max / IC50: CHO cells, 10 nM kisspeptin-10; for IC50: unit inferred, given in M
Description: Inositol-3-phoshate Antagonistic Assay—Cell monolayers had 0.5 mls HEPES modified DMEM supplemented with […] for 30 mins at 37° C. to block IP3 breakdown. Cells were then stimulated with 0.25 mls 10 nM Kisspeptin-10 plus 0.25 mls of 10 nM Kisspeptin-10 or analogues (10 pM-10 uM) diluted at 1:1000 in the above media for 1 hr at 37° C., then in 10 mM Formic acid at 4° C. for 1 hr to lyse cells. Lysate was then transferred to plastic tubes containing 0.5 mls Dowex resin to bind the radioactive IP3 and the resin was then washed with 1 ml H2O. The resin was then washed with 60 mM NH4 formate/5 mM Sodium tetraborate followed by 1M NH4 formate/0.1M Formic acid to release the bound radiation. Then 800 μls of the radioactive solution were transferred to scintillation vials containing 2.5 mls scintillation fluid and radioactivity counted on a Beta counter for 60 seconds.
Chinese hamster ovary (CHO) cells stably-expressing the human gpr-54 receptor (CHO/gpr-54) were obtained from Prof. G. Vassart, Univ. Brussels. The cells were maintained in Dulbecco's modified Eagle's medium (DMEM; Sigma) supplemented with 10% fetal calf serum, 2% glutamine and 1% penicillin (10,000 units/ml)/streptomycin ([…]) at 37° C. in a humidified 5% CO2 atmosphere.
Experiments were repeated 3-5 times. IP production was plotted as mean values±SEM and analyzed using a Student's t-Test ([…]).

Sequence of GPR54 (Q969F8 whole entry): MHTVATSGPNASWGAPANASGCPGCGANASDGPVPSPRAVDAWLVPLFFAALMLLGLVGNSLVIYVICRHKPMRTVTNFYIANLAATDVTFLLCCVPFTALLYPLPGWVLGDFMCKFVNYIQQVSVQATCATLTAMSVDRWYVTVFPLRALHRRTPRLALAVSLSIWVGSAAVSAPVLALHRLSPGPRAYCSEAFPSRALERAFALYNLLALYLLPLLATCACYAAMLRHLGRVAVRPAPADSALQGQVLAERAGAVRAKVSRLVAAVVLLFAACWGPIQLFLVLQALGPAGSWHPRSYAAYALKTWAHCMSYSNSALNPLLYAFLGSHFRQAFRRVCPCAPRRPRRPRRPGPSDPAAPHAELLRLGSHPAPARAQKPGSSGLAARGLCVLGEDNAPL

Structure (SMILES): CC(=O)N[C@H](Cc1ccccc1)C(=O)N[C@@H](Cc1c[nH]c2ccccc12)C(=O)N[C@@H](CC(C)C)C(=O)N[C@@H](CCCNC(=N)N)C(=O)N[C@@H](Cc1c[nH]c2ccccc12)C(N)=O [Peptide 203] (Ac-[dF]WLRW-NH2)
- Inhibition of IP stimulation by 10 nM Agonist: % Inhibition of Max: 71%
- IC50: 0.1 nM

Structure (SMILES): CC(=O)N[C@H](C)C(=O)N[C@@H](CC(N)=O)C(=O)N[C@@H](Cc1c[nH]c2ccccc12)C(=O)N[C@@H](CC(N)=O)C(=O)NCC(=O)N[C@H](Cc1c[nH]c2ccccc12)C(=O)NCC(=O)N[C@H](Cc1c[nH]c2ccccc12)C(=O)N[C@@H](CCCNC(=N)N)C(=O)N[C@@H](Cc1ccccc1)C(N)=O [Peptide 246] (Ac-[dA]NWNG[dW]G[dW]RF-NH2)
- Inhibition of IP stimulation by 10 nM Agonist: % Inhibition of Max: 80%
- IC50: 50 nM

Structure (SMILES): CC(=O)N[C@@H](Cc1ccccc1)C(=O)NCC(=O)N[C@H](Cc1c[nH]c2ccccc12)C(=O)N[C@@H](CCCNC(=N)N)C(=O)N[C@@H](Cc1ccccc1)C(N)=O [Peptide 206] (Ac-FG[dW]RF-NH2)
- Inhibition of IP stimulation by 10 nM Agonist: % Inhibition of Max: 68%
- IC50: 10 nM

Structure (SMILES): N=C(N)NCCC[C@H](NC(=O)[C@@H](Cc1c[nH]c2ccccc12)NC(=O)CNC(=O)[C@H](Cc1ccccc1)NC(=O)CNC(=O)[C@H](CC(N)=O)NC(=O)[C@H](Cc1c[nH]c2ccccc12)NC(=O)[C@H](CC(N)=O)NC(=O)[C@@H](N)Cc1ccc(O)cc1)C(=O)N[C@@H](Cc1ccccc1)C(N)=O [Peptide 210] (H-YNWNGFG[dW]RF-NH2)
- Inhibition of IP stimulation by 10 nM Agonist: % Inhibition of Max: 64%
- IC50: < 0.1 nM

Structure (SMILES): CC(=O)N[C@@H](Cc1ccccc1)C(=O)NCC(=O)N[C@@H](C)C(=O)N[C@@H](CCCNC(=N)N)C(=O)N[C@@H](Cc1c[nH]c2ccccc12)C(N)=O [Peptide 201] (Ac-FGARW-NH2)
- Inhibition of IP stimulation by 10 nM Agonist: % Inhibition of Max: 69%
- IC50: 7 nM

Structure (SMILES): CC(=O)N[C@H](C)C(=O)N[C@@H](CC(N)=O)C(=O)N[C@@H](Cc1c[nH]c2ccccc12)C(=O)N[C@@H](CC(N)=O)C(=O)N1CCC[C@@H]1C(=O)N[C@@H](Cc1ccccc1)C(=O)NCC(=O)N[C@H](Cc1c[nH]c2ccccc12)C(=O)N[C@@H](CCCNC(=N)N)C(=O)N[C@@H](Cc1ccccc1)C(N)=O [Peptide 275] (Ac-[dA]NWN[dP]FG[dW]RF-NH2)
- Inhibition of IP stimulation by 10 nM Agonist: % Inhibition of Max: 44%
- IC50: > 100 nM

Structure (SMILES): CC(=O)N[C@@H](Cc1ccc(O)cc1)C(=O)N[C@@H](CC(N)=O)C(=O)N[C@@H](Cc1c[nH]c2ccccc12)C(=O)N[C@@H](CC(N)=O)C(=O)N[C@H](Cc1c[nH]c2ccccc12)C(=O)N[C@@H](Cc1ccccc1)C(=O)NCC(=O)N[C@H](Cc1c[nH]c2ccccc12)C(=O)N[C@@H](CCCNC(=N)N)C(=O)N[C@@H](Cc1ccccc1)C(N)=O [Peptide 229] (Ac-YNWN[dW]FG[dW]RF-NH2)
- Inhibition of IP stimulation by 10 nM Agonist: % Inhibition of Max: 68%
- IC50: 8000 nM

Structure (SMILES): CC(=O)N[C@@H](Cc1ccccc1)C(=O)NCC(=O)N[C@H](CC(C)C)C(=O)N[C@@H](CCCNC(=N)N)C(=O)N[C@@H](Cc1c[nH]c2ccccc12)C(N)=O [Peptide 191]
- Inhibition of IP stimulation by 10 nM Agonist: % Inhibition of Max: 79%

Structure (SMILES): CC(C)C[C@H](NC(=O)CNC(=O)[C@@H](Cc1c[nH]c2ccccc12)NC(=O)CNC(=O)[C@H](CC(N)=O)NC(=O)[C@H](Cc1c[nH]c2ccccc12)NC(=O)[C@H](CC(N)=O)NC(=O)[C@@H](N)Cc1ccc(O)cc1)C(=O)N[C@@H](CCCNC(=N)N)C(=O)N[C@@H](Cc1ccccc1)C(N)=O [Peptide 212] (H-YNWNG[dW]GLRF-NH2)
- Inhibition of IP stimulation by 10 nM Agonist: % Inhibition of Max: 68%
- IC50: < 0.1 nM

Structure (SMILES): CC(=O)N[C@H](C)C(=O)N[C@@H](CC(N)=O)C(=O)N[C@@H](Cc1c[nH]c2ccccc12)C(=O)N[C@@H](CC(N)=O)C(=O)NCC(=O)N[C@@H](Cc1ccccc1)C(=O)NCC(=O)N[C@H](CC(C)C)C(=O)N[C@@H](CCCNC(=N)N)C(=O)N[C@@H](Cc1ccccc1)C(N)=O [Peptide 276] (Ac-[dA]NWNGFG[dL]RF-NH2)
- Inhibition of IP stimulation by 10 nM Agonist: % Inhibition of Max: 65%

Structure (SMILES): CC(C)C[C@H](NC(=O)CNC(=O)[C@H](Cc1ccccc1)NC(=O)[C@H](CO)NC(=O)[C@H](CC(N)=O)NC(=O)[C@H](Cc1c[nH]c2ccccc12)NC(=O)[C@H](CC(N)=O)NC(=O)[C@@H](N)Cc1ccc(O)cc1)C(=O)N[C@@H](CCCNC(=N)N)C(=O)N[C@@H](Cc1c[nH]c2ccccc12)C(N)=O [Peptide 187] (H-YNWNSFGLRW-NH2)
- Inhibition of IP stimulation by 10 nM Agonist: % Inhibition of Max: 36%

Structure (SMILES): CC(=O)N[C@@H](Cc1ccccc1)C(=O)NCC(=O)N[C@@H](CC(C)C)C(=O)N[C@H](CCCNC(=N)N)C(=O)N[C@@H](Cc1c[nH]c2ccccc12)C(N)=O [Peptide 200]
- Inhibition of IP stimulation by 10 nM Agonist: % Inhibition of Max: 63%
- IC50: 300 nM

Structure (SMILES): CC(=O)N[C@H](Cc1ccc(O)cc1)C(=O)N[C@@H](CC(N)=O)C(=O)N[C@@H](Cc1c[nH]c2ccccc12)C(=O)N[C@@H](CC(N)=O)C(=O)NCC(=O)N[C@H](Cc1c[nH]c2ccccc12)C(=O)NCC(=O)N[C@H](Cc1c[nH]c2ccccc12)C(=O)N[C@@H](CCCNC(=N)N)C(=O)N[C@@H](Cc1ccccc1)C(N)=O [Peptide 245] (Ac-[dY]NWNG[dW]G[dW]RF-NH2)
- Inhibition of IP stimulation by 10 nM Agonist: % Inhibition of Max: 66%

Structure (SMILES): CC(=O)N[C@H](C)C(=O)N[C@@H](CC(N)=O)C(=O)N[C@@H](Cc1c[nH]c2ccccc12)C(=O)N[C@@H](CC(N)=O)C(=O)N[C@@H](CO)C(=O)N[C@@H](Cc1ccccc1)C(=O)NCC(=O)N[C@H](Cc1c[nH]c2ccccc12)C(=O)N[C@@H](CCCNC(=N)N)C(=O)N[C@@H](Cc1ccccc1)C(N)=O [Peptide 247] (Ac-[dA]NWNSFG[dW]RF-NH2)
- Inhibition of IP stimulation by 10 nM Agonist: % Inhibition of Max: 80%

Structure (SMILES): CC(=O)N[C@@H](Cc1ccc(O)cc1)C(=O)N[C@@H](CC(N)=O)C(=O)N[C@H](Cc1c[nH]c2ccccc12)C(=O)N[C@@H](CC(N)=O)C(=O)NCC(=O)N[C@@H](Cc1ccccc1)C(=O)NCC(=O)N[C@H](Cc1c[nH]c2ccccc12)C(=O)N[C@@H](CCCNC(=N)N)C(=O)N[C@@H](Cc1ccccc1)C(N)=O [Peptide 231] (Ac-YN[dW]NGFG[dW]RF-NH2)
- Inhibition of IP stimulation by 10 nM Agonist: % Inhibition of Max: 55%
- IC50: 0.1 nM

Structure (SMILES): CC(=O)N[C@H](Cc1ccc(O)cc1)C(=O)N[C@H](CC(N)=O)C(=O)N[C@@H](Cc1c[nH]c2ccccc12)C(=O)N[C@@H](CC(N)=O)C(=O)N[C@@H](CO)C(=O)N[C@@H](Cc1ccccc1)C(=O)NCC(=O)N[C@@H](Cc1c[nH]c2ccccc12)C(=O)N[C@@H](CCCNC(=N)N)C(=O)N[C@@H](Cc1ccccc1)C(N)=O [Peptide 239] (Ac-[dY][dN]WNSFGWRF-NH2)
- Inhibition of IP stimulation by 10 nM Agonist: % Inhibition of Max: 0%

Structure (SMILES): CSCC[C@H](NC(=O)[C@H](CCCNC(=N)N)NC(=O)[C@H](CCCNC(=N)N)NC(C)=O)C(=O)N[C@@H](CCCCN)C(=O)N[C@@H](Cc1c[nH]c2ccccc12)C(=O)N[C@@H](CCCCN)C(=O)N[C@@H](CCCCN)C(=O)N[C@@H](Cc1ccc(O)cc1)C(=O)N[C@H](C)C(=O)N[C@@H](CC(N)=O)C(=O)N[C@@H](Cc1c[nH]c2ccccc12)C(=O)N[C@@H](CC(N)=O)C(=O)NCC(=O)N[C@@H](Cc1ccccc1)C(=O)NCC(=O)N[C@H](Cc1c[nH]c2ccccc12)C(=O)N[C@@H](CCCNC(=N)N)C(=O)N[C@@H](Cc1ccccc1)C(N)=O [Peptide 271, ac.R-R-M-K-W-K-K-Y-(D)A-N-W-N-G-F-G-(D)W-R-F.z] (Ac-RRMKWKKY[dA]NWNGFG[dW]RF-NH2)
- Inhibition of IP stimulation by 10 nM Agonist: % Inhibition of Max: 57%
- IC50: 5 nM
- kisspeptin antagonist function (with N-terminal Antennapedia heptapeptide): retains kisspeptin antagonist function

Structure (SMILES): CC(=O)N[C@@H](Cc1ccc(O)cc1)C(=O)N[C@@H](CC(N)=O)C(=O)N[C@@H](Cc1c[nH]c2ccccc12)C(=O)N[C@@H](CC(N)=O)C(=O)NCC(=O)N[C@@H](Cc1ccccc1)C(=O)NCC(=O)N[C@H](Cc1c[nH]c2ccccc12)C(=O)N[C@@H](CCCNC(=N)N)C(=O)N[C@@H](Cc1ccccc1)C(N)=O [Peptide 228] (Ac-YNWNGFG[dW]RF-NH2)
- Inhibition of IP stimulation by 10 nM Agonist: % Inhibition of Max: 58%
- IC50: 50 nM

Structure (SMILES): CC(C)C[C@@H](NC(=O)CNC(=O)[C@H](Cc1ccccc1)NC(=O)CNC(=O)[C@H](CC(N)=O)NC(=O)[C@H](Cc1c[nH]c2ccccc12)NC(=O)[C@H](CC(N)=O)NC(=O)[C@@H](N)Cc1ccc(O)cc1)C(=O)N[C@@H](CCCNC(=N)N)C(=O)N[C@@H](Cc1ccccc1)C(N)=O [Peptide 209] (H-YNWNGFG[dL]RF-NH2)
- Inhibition of IP stimulation by 10 nM Agonist: % Inhibition of Max: 61%
- IC50: 100 nM

Structure (SMILES): CC(=O)N[C@H](C)C(=O)N[C@@H](CC(N)=O)C(=O)N[C@@H](Cc1c[nH]c2ccccc12)C(=O)N[C@@H](CC(N)=O)C(=O)NCC(=O)N[C@@H](Cc1ccccc1)C(=O)NCC(=O)N[C@@H](CC(C)C)C(=O)N[C@H](CCCNC(=N)N)C(=O)N[C@@H](Cc1ccccc1)C(N)=O [Peptide 278] (Ac-[dA]NWNGFGL[dR]F-NH2)
- Inhibition of IP stimulation by 10 nM Agonist: % Inhibition of Max: 47%
- IC50: > 200 nM

Structure (SMILES): CC(=O)N[C@@H](Cc1ccccc1)C(=O)NCC(=O)N[C@@H](CC(C)C)C(=O)N[C@@H](CCCNC(=N)N)C(=O)N[C@@H](Cc1ccccc1)C(N)=O [Peptide 188] (Ac-FGLRF-NH2)
- Inhibition of IP stimulation by 10 nM Agonist: % Inhibition of Max: 74%
